Data taken from patent US6124323A, “4-substituted piperidine analogs and their use as subtype selective NMDA receptor antagonists” (Warner-Lambert Company, priority 1998, dated 2000).
Structures can show the parent of a compound that is named as a salt.

Experiments:
Format in all cases: cell-based
[1] = target: T1, NMDA receptor subunits 1A/2B (Rattus norvegicus, UniProt P35439+Q00960); test: Electrophysiological assay at NMDA receptor subunits expressed in Xenopus oocytes, 1A/2B; details: Xenopus oocytes; glutamate 100 μm and glycine 1-100 μm; read-out: Subunits IC50, 1A/2B
T1 construct: expressed in transfected cells; host or cells: Xenopus laevis oocytes (cRNA injection; clones from Dr. P. H. Seeburg)
Procedure: (§1) Many of the properties of native NMDA receptors are seen in recombinant homomeric NR1 receptors. These properties are altered by the NR2 subunits. Recombinant NMDA receptors expressed in Xenopus oocytes have been studied by voltage-clamp recording, as has developmental and regional expression of the mRNAs encoding NMDA receptor subunits. Electrophysiological assays were utilized to characterize the actions of compounds at NMDA receptors expressed in Xenopus oocytes. The compounds were assayed at four subunit combinations of cloned rat NMDA receptors, corresponding to three putative NMDA receptor subtypes [Moriyoshi, et al. Nature 1991, 354, 31-37; Monyer et al, Science 1992, 256, 1217-1221; Kutsuwada et al, Nature 1992, 358, 36-41; Sugihara et al, Biochem. Biophys Res. Commun. 1992, 185, 826-832].
(§2) Electrophysiological Assays at NMDA Receptor Subunits
(§3) Preparation of RNA. cDNA clones encoding the NR1A, NR2A, NR2B, NR2C and NR2D rat NMDA receptor subtypes were provided by Dr. P. H. Seeburg (see, Moriyoshi et al., Nature (Lond.) 354:31-37 (1991); Kutsuwada et al., Nature (Lond.) 358:36-41 (1992) Monyer et al., Science (Washington, D.C.) 256:1217-1221 (1992); Ikeda et al., FEBS Lett. 313:34-38 (1992); Ishii et al., J. Biol. Chem. 268:2836-2843 (1993) for details of these clones or their mouse homologs). The clones were transformed into appropriate host bacteria and plasmid preparations were made with conventional DNA purification techniques. A sample of each clone was linearized by restriction enzyme digestion and cRNA was synthesized with T3 RNA polymerase. The cRNA was diluted to 400 ng/μl and stored in 1 μl aliquots at -80° C. until injection.
(§4) The Xenopus oocyte expression system. Mature female Xenopus laevis were anaesthetized (20-40 min) using 0.15% 3-aminobenzoic acid ethyl ester (MS-222) and 2-4 ovarian lobes were surgically removed. Oocytes at developmental stages IV-VI (Dumont, J. N., J. Morphol. 136:153-180 (1972)), were dissected from the ovary still surrounded by enveloping ovarian tissues. Follicle-enclosed oocytes were micro-injected with 1:1 mixtures of cRNA:NR1A+NR2A, 2B, 2C or 2D; injecting ~2,5, or 20 ng of RNA encoding each receptor subunit. NR1A encoding cRNA was injected alone at ~20 ng. Oocytes were stored in Barth's medium containing (in mM):NaCl, 88; KCl, 1; CaCl2, 0.41; Ca(NO3)2, 0.33; MgSO4, 0.82 NaHCO3, 2.4; HEPES 5, pH 7.4, with 0.1 mg/ml gentamicin sulphate. While oocytes were still surrounded by enveloping ovarian tissues the Barth's medium was supplemented with 0.1% bovine serum. Oocytes were defolliculated 1-2 days following injections by treatment with collagenase (0.5 mg/ml Sigma Type I for 0.5-1 hr) (Miledi and Woodward, J. Physiol. (Lond.) 416:601-621 (1989)) and subsequently stored in serum-free medium.
(§5) Electrical recordings were made using a conventional two-electrode voltage clamp (Dagan TEV-200) over periods ranging between 3-21 days following injection. (Woodward et al., Mol. Pharmacol. 41: 89-103 (1992)). Oocytes were placed in a 0.1 ml recording chamber continuously perfused (5-15 ml min^-1 ) with frog Ringer's solution containing (in mM):NaCl, 115; KCl, 2; CaCl2, 1.8; HEPES, 5; pH 7.4. Drugs were applied by bath perfusion. Using oocytes expressing different subunit combinations of NMDA receptor, NMDA currents were activated by co-application of glutamate (100 μm) and glycine (1-100 μm). Inhibitory potency of the novel antagonists was assessed on responses elicited by fixed concentrations of glutamate and glycine, by measuring reductions in current induced by progressively increasing concentrations of antagonist. Concentration-inhibition curves were fit with equation 1.
(§6) I/Icontrol =1/(1+([antagonist]/10^-pIC50)^n) Eq. 1
(§7) in which Icontrol is the current evoked by agonists alone, pIC50 =-log IC50, IC50 is the concentration of antagonist that produces half maximal inhibition, and n is the slope factor. (De Lean et al., Am. J. Physiol. 235:E97-102 (1978)). […]

[2] = target: T2, NMDA receptor subunits 1A/2A (Rattus norvegicus, UniProt P35439+Q00959); test: Electrophysiological assay at NMDA receptor subunits expressed in Xenopus oocytes, 1A/2A; details: glutamate 100 μm and glycine 1-100 μm
T2 construct: expressed in transfected cells; host or cells: Xenopus laevis oocytes (cRNA injection; clones from Dr. P. H. Seeburg)
Procedure: as §1, §2, §3, §4, §5, §6, §7

[3] = target: T3, NMDA receptor subunits 1A/2C (Rattus norvegicus, UniProt P35439+Q00961); test: Electrophysiological assay at NMDA receptor subunits expressed in Xenopus oocytes, 1A/2C; details: Xenopus oocytes; glutamate 100 μm and glycine 1-100 μm; read-out: Subunits IC50, 1A/2C
T3 construct: expressed in transfected cells; host or cells: Xenopus laevis oocytes (cRNA injection; clones from Dr. P. H. Seeburg)
Procedure: as §1, §2, §3, §4, §5, §6, §7

T2 sequence (Q00959 20-1464 limits assumed, other chains not shown): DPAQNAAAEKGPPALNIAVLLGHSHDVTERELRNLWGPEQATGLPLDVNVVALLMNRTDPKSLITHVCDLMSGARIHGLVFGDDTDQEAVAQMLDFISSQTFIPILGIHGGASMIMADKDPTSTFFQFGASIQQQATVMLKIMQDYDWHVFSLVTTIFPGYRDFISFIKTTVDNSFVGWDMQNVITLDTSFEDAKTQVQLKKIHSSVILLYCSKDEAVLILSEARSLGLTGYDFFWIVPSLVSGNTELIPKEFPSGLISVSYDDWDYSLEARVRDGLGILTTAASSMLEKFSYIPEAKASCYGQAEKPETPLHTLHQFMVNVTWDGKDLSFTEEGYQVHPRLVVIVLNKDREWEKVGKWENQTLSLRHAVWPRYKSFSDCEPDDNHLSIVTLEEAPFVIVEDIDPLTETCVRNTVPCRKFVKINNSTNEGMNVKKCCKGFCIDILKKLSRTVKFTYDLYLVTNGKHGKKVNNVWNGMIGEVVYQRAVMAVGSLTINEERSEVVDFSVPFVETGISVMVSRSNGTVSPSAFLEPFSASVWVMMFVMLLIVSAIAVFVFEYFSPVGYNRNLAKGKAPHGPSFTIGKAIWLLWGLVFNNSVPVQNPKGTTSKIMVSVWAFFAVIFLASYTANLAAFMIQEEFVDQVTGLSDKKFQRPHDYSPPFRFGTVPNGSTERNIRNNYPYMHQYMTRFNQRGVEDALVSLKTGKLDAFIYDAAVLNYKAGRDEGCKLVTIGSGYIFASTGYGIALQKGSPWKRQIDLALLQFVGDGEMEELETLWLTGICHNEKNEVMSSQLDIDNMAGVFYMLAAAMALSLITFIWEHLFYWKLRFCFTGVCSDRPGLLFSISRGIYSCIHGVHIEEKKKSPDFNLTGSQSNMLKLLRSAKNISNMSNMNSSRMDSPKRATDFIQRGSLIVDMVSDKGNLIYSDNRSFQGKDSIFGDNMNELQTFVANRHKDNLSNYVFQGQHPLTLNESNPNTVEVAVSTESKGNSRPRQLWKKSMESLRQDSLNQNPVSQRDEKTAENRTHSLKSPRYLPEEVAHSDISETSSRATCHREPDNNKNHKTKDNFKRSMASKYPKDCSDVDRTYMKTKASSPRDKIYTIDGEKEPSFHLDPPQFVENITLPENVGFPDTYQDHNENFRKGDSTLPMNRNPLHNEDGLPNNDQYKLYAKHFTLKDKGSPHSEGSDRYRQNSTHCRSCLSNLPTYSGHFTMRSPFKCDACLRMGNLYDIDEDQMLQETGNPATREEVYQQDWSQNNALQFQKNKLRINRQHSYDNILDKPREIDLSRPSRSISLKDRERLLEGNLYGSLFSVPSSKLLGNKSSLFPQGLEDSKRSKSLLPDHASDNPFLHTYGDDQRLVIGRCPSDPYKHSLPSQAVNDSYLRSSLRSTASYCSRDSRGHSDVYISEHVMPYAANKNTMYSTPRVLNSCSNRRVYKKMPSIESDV
T3 sequence (Q00961 20-1237, other chains not shown): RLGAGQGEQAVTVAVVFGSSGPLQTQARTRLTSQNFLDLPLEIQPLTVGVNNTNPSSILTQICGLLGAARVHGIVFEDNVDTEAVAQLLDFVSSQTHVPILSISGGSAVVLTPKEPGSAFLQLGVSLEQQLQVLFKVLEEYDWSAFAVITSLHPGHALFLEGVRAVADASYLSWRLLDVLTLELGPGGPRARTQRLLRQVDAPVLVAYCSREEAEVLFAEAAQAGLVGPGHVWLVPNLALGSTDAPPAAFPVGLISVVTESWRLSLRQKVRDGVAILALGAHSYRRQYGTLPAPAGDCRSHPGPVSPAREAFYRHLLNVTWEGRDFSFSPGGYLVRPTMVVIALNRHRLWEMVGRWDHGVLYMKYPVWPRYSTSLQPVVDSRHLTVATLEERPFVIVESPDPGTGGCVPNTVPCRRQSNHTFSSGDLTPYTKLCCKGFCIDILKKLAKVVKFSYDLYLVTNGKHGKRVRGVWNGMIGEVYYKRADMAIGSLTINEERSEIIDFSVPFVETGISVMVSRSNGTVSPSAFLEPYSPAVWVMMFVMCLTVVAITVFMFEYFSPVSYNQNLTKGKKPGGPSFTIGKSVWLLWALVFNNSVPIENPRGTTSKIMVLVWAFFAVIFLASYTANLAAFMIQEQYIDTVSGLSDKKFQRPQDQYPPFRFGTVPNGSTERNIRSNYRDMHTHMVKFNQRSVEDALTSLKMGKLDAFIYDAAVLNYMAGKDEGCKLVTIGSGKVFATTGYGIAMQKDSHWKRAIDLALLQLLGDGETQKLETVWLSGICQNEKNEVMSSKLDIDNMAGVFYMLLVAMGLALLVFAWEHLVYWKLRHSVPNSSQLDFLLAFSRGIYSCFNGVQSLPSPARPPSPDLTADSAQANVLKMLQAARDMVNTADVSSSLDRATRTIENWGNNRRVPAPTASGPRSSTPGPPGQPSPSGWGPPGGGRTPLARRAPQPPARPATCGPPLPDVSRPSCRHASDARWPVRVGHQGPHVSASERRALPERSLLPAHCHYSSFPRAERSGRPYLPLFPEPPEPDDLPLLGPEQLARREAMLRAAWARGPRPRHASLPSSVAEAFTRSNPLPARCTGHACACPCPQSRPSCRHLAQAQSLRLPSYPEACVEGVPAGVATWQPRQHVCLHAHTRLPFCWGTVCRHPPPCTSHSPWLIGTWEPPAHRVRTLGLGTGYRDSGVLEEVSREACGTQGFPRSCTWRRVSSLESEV
T1 sequence (Q00960 27-1482, other chains not shown): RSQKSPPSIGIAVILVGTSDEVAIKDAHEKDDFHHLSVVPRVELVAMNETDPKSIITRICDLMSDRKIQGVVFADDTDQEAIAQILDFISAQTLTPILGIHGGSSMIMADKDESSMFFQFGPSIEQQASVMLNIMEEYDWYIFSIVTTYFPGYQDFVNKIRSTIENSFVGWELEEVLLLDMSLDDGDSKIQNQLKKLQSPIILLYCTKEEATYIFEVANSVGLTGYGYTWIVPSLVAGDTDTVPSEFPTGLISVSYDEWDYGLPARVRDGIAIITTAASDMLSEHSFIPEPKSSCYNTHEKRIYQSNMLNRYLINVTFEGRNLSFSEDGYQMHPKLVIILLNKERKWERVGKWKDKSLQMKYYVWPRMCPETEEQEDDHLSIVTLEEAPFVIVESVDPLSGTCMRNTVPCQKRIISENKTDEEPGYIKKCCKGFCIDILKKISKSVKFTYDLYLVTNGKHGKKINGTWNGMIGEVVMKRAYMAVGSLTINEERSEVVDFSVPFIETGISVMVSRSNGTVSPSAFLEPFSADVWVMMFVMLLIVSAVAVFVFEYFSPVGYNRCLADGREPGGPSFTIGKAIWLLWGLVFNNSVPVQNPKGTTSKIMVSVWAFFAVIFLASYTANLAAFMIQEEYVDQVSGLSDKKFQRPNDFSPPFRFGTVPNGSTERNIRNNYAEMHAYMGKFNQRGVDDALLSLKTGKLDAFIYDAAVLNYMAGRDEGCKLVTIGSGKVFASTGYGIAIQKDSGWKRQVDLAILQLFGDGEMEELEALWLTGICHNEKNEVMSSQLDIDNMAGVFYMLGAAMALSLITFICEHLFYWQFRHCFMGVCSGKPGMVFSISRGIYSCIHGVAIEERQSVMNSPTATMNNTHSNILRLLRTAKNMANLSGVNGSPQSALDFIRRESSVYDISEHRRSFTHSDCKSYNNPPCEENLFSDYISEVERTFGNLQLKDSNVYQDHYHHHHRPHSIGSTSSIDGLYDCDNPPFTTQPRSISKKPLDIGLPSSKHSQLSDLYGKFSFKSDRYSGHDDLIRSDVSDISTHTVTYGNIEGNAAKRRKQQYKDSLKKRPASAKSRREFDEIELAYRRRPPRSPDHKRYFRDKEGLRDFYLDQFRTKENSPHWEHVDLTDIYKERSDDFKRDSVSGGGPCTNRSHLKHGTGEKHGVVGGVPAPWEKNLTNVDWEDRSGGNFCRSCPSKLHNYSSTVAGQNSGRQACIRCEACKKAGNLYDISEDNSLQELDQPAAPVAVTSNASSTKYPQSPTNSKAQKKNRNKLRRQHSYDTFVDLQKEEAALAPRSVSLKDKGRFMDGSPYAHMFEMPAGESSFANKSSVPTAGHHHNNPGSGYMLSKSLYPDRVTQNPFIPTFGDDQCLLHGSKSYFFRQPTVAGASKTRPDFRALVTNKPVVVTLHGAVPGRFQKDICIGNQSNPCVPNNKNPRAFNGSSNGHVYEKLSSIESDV

| Structure (SMILES) | IC50 [1] | IC50 [2] | IC50 [3] |
| --- | --- | --- | --- |
| CC(CCOc1ccccc1)N1CCC(Cc2ccccc2)CC1 (stereo not drawn) [Ex. 41, 4-Benzyl-1-(1-methyl-3-phenoxypropyl)piperidine hydrochloride] | 5 µM | 90 µM | > 100 µM |
| c1ccc(CC2CCN(CCOc3ccc4ncccc4c3)CC2)cc1 [Ex. 50] | 5 µM | 75 µM | > 100 µM |
| c1ccc(CC2CCN(CCOc3cccc4cccnc34)CC2)cc1 [Ex. 51, 4-Benzyl-1-[2-(8-quinolinoxy)ethyl]piperidine] | 5 µM | 80 µM | > 100 µM |
| Nc1c(OCCN2CCC(Cc3ccccc3)CC2)cccc1[N+](=O)[O-] [Ex. 52, 4-Benzyl-1-[2-(2-amino-3-nitrophenoxy)ethyl]piperidine] | 9.5 µM | 60 µM | > 100 µM |
| O=c1[nH]c2cccc(OCCN3CCC(Cc4ccccc4)CC3)c2[nH]c1=O [Ex. 54, 4-Benzyl-1-[2-(2,3-dioxoquinoxalin-5-oxy)ethyl]piperidine] | 3.6 µM | 60 µM | > 100 µM |
| c1ccc(COc2ccc(OCCN3CCC(Cc4ccccc4)CC3)cc2)cc1 [Ex. 98, 1-[2-(4-Benzyloxyphenoxy)ethyl]-4-benzylpiperidine hydrochloride] | 100 µM | 80 µM | 80 µM |
| Oc1ccc(CCCN2CCC(Cc3ccccc3)CC2)cc1 [Ex. 106, 1-[3-(4-Hydroxyphenyl)propyl]-4-benzylpiperidine hydrochloride] | 0.02 µM | 90 µM | 260 µM |
| Oc1ccc(CCCN2CCC(Cc3ccc(Cl)cc3)CC2)cc1 [Ex. 107, 1-[3-(4-Hydroxyphenyl)propyl]-4-(4-chlorobenzyl)piperidine hydrochloride] | 0.03 µM | 60 µM | 270 µM |
| Oc1ccc(OCCN2CCC(c3ccccc3)CC2)cc1 [Ex. 127, 1-[2-(4-Hydroxyphenoxy)ethyl]-4-phenylpiperidine hydrochloride] | 5 µM | 70 µM | > 300 µM |
| c1ccc(CC2CCN(CCSc3ccccc3)CC2)cc1 [Ex. 144, 4-Benzyl-1-(2-thiophenoxyethyl)piperidine hydrochloride] | 1.6 µM | > 300 µM | > 300 µM |
| Cc1ccc(CC2(O)CCN(CCOc3ccc(O)c(C)c3)CC2)cc1 [Ex. 155, 1-[2-(4-hydroxy-3-methylphenoxy)ethyl]-4-hydroxy-4-(4-methylbenzyl)piperidine hydrochloride] | 0.03 µM | 170 µM | > 300 µM |
| CN(CCN1CCC(Cc2ccccc2)CC1)c1ccc(O)cc1 [Ex. 163, 4-Benzyl-1-(2-(N-methyl-4-hydroxyanilino)ethyl)piperidine dihydrochloride] | 0.1 µM | 35 µM | > 300 µM |
| N=c1[nH]c2ccc(OCCN3CCC(Cc4ccccc4)CC3)cc2[nH]1 [Ex. 172, 4-Benzyl-1-(2-(2-iminobenzimidazol-5-oxy)ethyl)piperidine] | 0.11 µM | 140 µM | 50 µM |

The next lines start with the values.

| IC50 [1] | IC50 [2] | IC50 [3] | Structure (SMILES) |
| --- | --- | --- | --- |
| 1.1 µM | 90 µM | > 100 µM | Nc1ccc(OCCN2CCC(Cc3ccccc3)CC2)cc1[N+](=O)[O-] [Ex. 56, 4-Benzyl-1-[2-(4-amino-3-nitrophenoxy)ethyl]piperidine] |
| 6 µM | 80 µM | > 100 µM | O=[N+]([O-])c1cccc(OCCN2CCC(Cc3ccccc3)CC2)c1 [Ex. 62, 4-Benzyl-1-[2-(3-nitrophenoxy)ethyl]piperidine] |
| 0.43 µM | 20 µM | > 100 µM | COc1cccc(OCCN2CCC(Cc3ccccc3)CC2)c1 [Ex. 69, 4-Benzyl-1-[2-(3-methoxyphenoxy)ethyl]piperidine] |
| 0.025 µM | 16 µM | 70 µM | O=c1[nH]c2ccc(OCCN3CCC(Cc4ccc(Cl)cc4)CC3)cc2[nH]1 [Ex. 80, 4-(4-Chlorobenzyl)-1-[2-(2-oxobenzimidazol-5-oxy)ethyl]piperidine] |
| 0.25 µM | 62 µM | > 300 µM | Oc1ccc(CCN2CCC(Cc3ccccc3)CC2)cc1 [Ex. 108, 1-[2-(4-Hydroxyphenyl)ethyl]-4-benzylpiperidine hydrochloride] |
| 30 µM | 200 µM | 200 µM | Fc1ccc(OCCN2CCC(Cc3cccc(F)c3)CC2)cc1 [Ex. 113, 4-(3-Fluorobenzyl)-1-(2-(4-fluorophenoxy)ethyl)piperidine hydrochloride] |
| 3.8 µM | 105 µM | 135 µM | c1ccc(CC2CCN(CCOc3ccc4c(c3)OCO4)CC2)cc1 [Ex. 148, 1-[2-(3,4-Methylenedioxyphenoxy)ethyl]-4-benzylpiperidine hydrochloride] |
| 0.04 µM | 90 µM | 200 µM | Cc1cc(OCCN2CCC(Cc3ccc(F)cc3)CC2)ccc1O [Ex. 152, 1-[2-(4-Hydroxy-3-methylphenoxy)ethyl]-4-(4-fluorobenzyl)piperidine hydrochloride] |
| 0.04 µM | 65 µM | 70 µM | Cc1ccc(CC2CCN(CCOc3ccc(O)c(C)c3)CC2)cc1 [Ex. 153, 1-[2-(4-Hydroxy-3-methylphenoxy)ethyl]-4-(4-methylbenzyl)piperidine hydrochloride] |
| 0.5 µM | 130 µM | 140 µM | Oc1cccc(OCCN2CCC(Cc3ccc(F)cc3)CC2)c1 [Ex. 159, 4-(4-Fluorobenzyl)-1-[2-(3-Hydroxyphenoxy)ethyl]piperidine hydrochloride] |
| 0.2 µM | 60 µM | 120 µM | Cc1ccc(CC2CCN(CCOc3cccc(O)c3)CC2)cc1 [Ex. 160, 1-[2-(3-Hydroxyphenoxy)ethyl]-4-(4-methylbenzyl)piperidine hydrochloride] |
| 0.04 µM | 85 µM | 170 µM | Cc1ccc(CC2CCN(CCOc3ccccc3O)CC2)cc1 [Ex. 161, 1-[2-(2-Hydroxyphenoxy)ethyl]-4-(4-methylbenzyl)piperidine hydrochloride] |
| 0.1 µM | 25 µM | > 300 µM | Oc1ccc2cc(OCCN3CCC(Cc4ccc(F)cc4)CC3)ccc2c1 [Ex. 191, 4-(4-Fluorobenzyl)-1-(2-(2-hydroxynaphth-6-oxy)ethyl)piperidine] |
| 0.1 µM | > 300 µM | > 300 µM | Cc1ccc(CC2CCN(CCOc3ccc4cc(O)ccc4c3)CC2)cc1 [Ex. 192, 4-(4-Methylbenzyl)-1-(2-(2-hydroxynaphth-6-oxy)ethyl)piperidine] |
| 0.07 µM | > 300 µM | > 300 µM | O=C1Cc2cc(OCCN3CCC(Cc4ccc(F)cc4)CC3)ccc2N1 [Ex. 195, 4-(4-Fluorobenzyl)-1-(2-(2-oxo-1,3-dihydroindol-5-oxy)ethyl)piperidine] |
